Results from patent US9180115B2, “Cyclohexylamines” (Asana Biosciences, LLC, priority 2011, dated 2015).
Values joined by “and” are separate entries in the source; they are usually repeats but may differ in a detail not shown here. Equal values may be shown once. Read-outs that look alike come from different tables or passages of the source.

Assays:
[1] = tested on: sodium channel response in hTRPV1-N1E115 cells; assay: FLIPR membrane potential assay of sodium channel response in hTRPV1-N1E115 cells with or without heat (47° C.) activation; assay type: cell-based; details: for IC50: read-out: hTRPV1-N1E IC50 (μM) 47° C.
Summary of the method: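 hTRPV1-N1E115 cells loaded with FMP membrane-potential dye; compound added, then one duplicate plate heated at 47° C. for 10 min plus 30 min at room temperature, the other kept at room temperature 40 min. Depolarization by veratridine 100 μM final, with ATX-II 3 μM final; inhibition of the fluorescence signal scored.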

[2] = tested on: Male Sprague Dawley (SD) rats; assay: In vivo assay of mechanical nociception (rat pinch model, perisciatic injection); details: for Average Time of Analgesia: test compound 0.5%
[3] = molecular target: T1, human Nav1.5 sodium channel (Homo sapiens, UniProt Q14524); assay: FLIPR membrane potential assay in hNav1.5-HEK293 cells; assay type: cell-based
T1 construct: host or cells: HEK-293
T1 sequence (Q14524 whole entry): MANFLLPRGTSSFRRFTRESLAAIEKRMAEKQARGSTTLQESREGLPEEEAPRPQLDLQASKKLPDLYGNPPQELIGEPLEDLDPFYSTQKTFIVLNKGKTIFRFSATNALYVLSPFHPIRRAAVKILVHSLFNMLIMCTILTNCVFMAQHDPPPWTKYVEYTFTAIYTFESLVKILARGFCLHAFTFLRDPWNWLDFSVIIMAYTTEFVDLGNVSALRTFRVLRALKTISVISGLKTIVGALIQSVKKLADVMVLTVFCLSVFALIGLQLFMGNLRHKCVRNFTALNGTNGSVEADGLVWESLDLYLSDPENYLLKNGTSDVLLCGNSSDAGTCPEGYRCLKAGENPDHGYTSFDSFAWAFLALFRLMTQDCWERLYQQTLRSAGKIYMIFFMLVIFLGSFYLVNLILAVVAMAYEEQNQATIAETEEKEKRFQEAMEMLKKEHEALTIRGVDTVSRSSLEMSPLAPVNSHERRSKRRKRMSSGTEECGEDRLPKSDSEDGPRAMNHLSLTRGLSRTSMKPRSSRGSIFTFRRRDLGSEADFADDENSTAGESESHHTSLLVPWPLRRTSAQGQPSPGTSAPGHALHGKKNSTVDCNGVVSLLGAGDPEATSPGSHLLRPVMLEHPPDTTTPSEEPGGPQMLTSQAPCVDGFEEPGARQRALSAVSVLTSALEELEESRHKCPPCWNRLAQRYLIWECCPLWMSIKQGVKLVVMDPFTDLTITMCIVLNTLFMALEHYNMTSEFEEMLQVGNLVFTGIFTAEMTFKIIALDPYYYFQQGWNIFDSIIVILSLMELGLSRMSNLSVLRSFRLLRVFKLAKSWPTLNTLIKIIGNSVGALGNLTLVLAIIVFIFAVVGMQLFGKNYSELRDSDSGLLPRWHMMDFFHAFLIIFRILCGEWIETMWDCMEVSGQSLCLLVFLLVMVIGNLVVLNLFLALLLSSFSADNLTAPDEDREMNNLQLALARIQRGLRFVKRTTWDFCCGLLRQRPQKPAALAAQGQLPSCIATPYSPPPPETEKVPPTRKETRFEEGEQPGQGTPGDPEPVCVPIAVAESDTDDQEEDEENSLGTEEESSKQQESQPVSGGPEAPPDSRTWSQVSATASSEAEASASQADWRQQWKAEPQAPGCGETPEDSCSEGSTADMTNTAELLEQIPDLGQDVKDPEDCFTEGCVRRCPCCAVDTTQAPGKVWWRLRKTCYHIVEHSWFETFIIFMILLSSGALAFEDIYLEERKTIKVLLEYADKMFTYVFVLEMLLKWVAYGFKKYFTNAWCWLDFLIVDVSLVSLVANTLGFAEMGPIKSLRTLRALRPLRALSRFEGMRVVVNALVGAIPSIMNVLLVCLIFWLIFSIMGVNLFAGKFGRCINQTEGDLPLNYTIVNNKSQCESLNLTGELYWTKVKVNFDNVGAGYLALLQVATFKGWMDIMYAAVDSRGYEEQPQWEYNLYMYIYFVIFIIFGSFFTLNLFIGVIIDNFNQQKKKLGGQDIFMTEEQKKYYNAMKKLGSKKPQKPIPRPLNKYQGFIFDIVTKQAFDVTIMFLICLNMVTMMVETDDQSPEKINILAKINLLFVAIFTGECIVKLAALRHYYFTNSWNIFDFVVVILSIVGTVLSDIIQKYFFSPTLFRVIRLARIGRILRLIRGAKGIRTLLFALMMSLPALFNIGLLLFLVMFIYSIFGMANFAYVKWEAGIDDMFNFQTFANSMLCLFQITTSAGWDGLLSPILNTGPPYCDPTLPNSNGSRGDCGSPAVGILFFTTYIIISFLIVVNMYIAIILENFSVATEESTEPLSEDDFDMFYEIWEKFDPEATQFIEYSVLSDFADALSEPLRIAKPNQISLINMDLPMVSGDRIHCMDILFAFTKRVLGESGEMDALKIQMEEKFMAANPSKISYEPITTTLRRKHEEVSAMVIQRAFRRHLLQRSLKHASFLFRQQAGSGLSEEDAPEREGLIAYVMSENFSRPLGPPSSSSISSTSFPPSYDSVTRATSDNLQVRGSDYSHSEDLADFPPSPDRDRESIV
Description: C. Method for Assessing the Extent of Inhibition of Sodium Channel Response with Compounds in hNav1.5-HEK293 Cells.
The following assay was used to assess the tendency of the test compounds to block the dominant cardiac sodium channel isoform. Nav1.5 sodium channels are known to be permeable to quaternary sodium channel blockers such as QX-314 and, thus, the assay was performed in the absence of a chemical TRPV1 agonist.
The hNav1.5-HEK-293 cells (CreaCell, France, a human embryonic kidney cell line expressing the human Nav1.5 sodium channel) were cultured in Growth medium (containing 1×DMEM (Gibco)+10% FBS (PAA Gold)+2% glutamine 100 mM (Gibco)+1% penicillin 10,000 U/mL streptomycin 10,000 μg/mL (Invitrogen)+1.2 mg/mL Geneticin® G418 (Invitrogen)) in 75 mL cell bind flasks (Corning). The following steps were followed exactly as mentioned. The spent medium was discarded and the cells rinsed once with PBS-1×. Accutase® (1-2 mL; PAA) solution was added. The plate was placed on a 37° C. warming incubator 3-5 minutes. As soon as cells are detached, 37° C. complete medium (9 mL) was added. The cell suspension is drawn into a sterile pipette and cells homogenized gently to dissociate cell aggregates. The cells were counted using a hemocytometer with Blue Trypan and then centrifuged 5 minutes at 400 g. The cells can be amplified or maintained by seeding […] in a T75 flask (final volume: 15 mL). 8000 cells in 50 μL Growth medium was added to each well of 384-well, clear bottomed, sterile poly-D-lysine coated plates with lid (Greiner-bio one) inside the laminar air-flow. The plates were incubated at 37° C. and 5% CO2 in a CO2 incubator (Thermo) for 48 hours.
On the day of the assay, cells were washed with Assay buffer, which was prepared using the components and amounts in the following Table 5. pH was adjusted to 7.4 with NaOH, volume made up to 500 mL with Milli-Q® water.
Assay Buffer was added to the cells and incubated at rt (25° C.) for 10 minutes. The compounds were diluted in assay buffer. The compounds were added and incubated at rt (25° C.) for 10 minutes. Red FMP Dye (MDC) was added to the cells and the plate was incubated at rt (25° C.) for 30 minutes. Veratridine stock (20 mM; Sigma) was prepared in DMSO; veratridine (final concentration of 30 μM) in assay buffer was added to each well of the cell seeded plates in the FLIPR and read taken for 10 minutes. The following table provides data illustrating the sodium channel activity of the test compounds in response to the presence or absence of heat stimulation in cells expressing hTRPV1. The compounds were tested for differential activity at 25° C. and 47° C. and at two test concentrations.

[4] = tested on: sodium current in DRG neurons; details: co-applied with 1 μM capsaicin, whole-cell voltage clamp; read-out: in vitro apparent affinity (IC50) for blocking sodium current in DRG neurons; cited from earlier work
isolated detrusor muscle = assay: In vitro assay for effect of compounds on bladder detrusor muscle (EFS-induced contractions); design: species or system guinea-pigs; details: cumulative concentration-response
[5] = 0.1 mM, 25° C. (no heat activation)

Cc1cccc(C)c1C(=O)OC(C)C[N+](C)(C)C1CCCCC1.[I-] (stereo not shown) [Example 6, N-[2-((2,6-Dimethylbenzoyl)oxy)propyl]-N,N-dimethylcyclohexanaminium iodide]
hTRPV1-N1E Nav (% inhibition) 25° C., 0.5 mM ([1]; 0.5 mM, 25° C.): 24 (N = 2, % | hTRPV1-N1E Nav (% inhibition) 47° C., 0.5 mM ([1]; 0.5 mM, 47° C.): 80 (N = 2, % | hTRPV1-N1E Nav (% inhibition) 25° C., 5 mM ([1]; 5 mM, 25° C.): 58 (N = 2, % | hTRPV1-N1E Nav (% inhibition) 47° C., 5 mM ([1]; 5 mM, 47° C.): 92 (N = 2, % | hTRPV1-N1E IC50 (μM) 47° C. ([1]; 47° C.): B ′ | analgesic effects in the absence of lidocaine ([2]; absence of lidocaine): analgesic effects of significant duration | Average Time of Analgesia ([2]; lidocaine 0%, injection 200 μL): 5 h | Average Time of Analgesia ([2]; lidocaine 2%, injection 100 μL): 8 h | Average Time of Analgesia ([2]; lidocaine 2%, injection 200 μL): 14 h and 10 h | inhibition at 10 min, 0.5 mM ([3]; human, hNav1.5-HEK293 cells (HEK-293 cells expressing human Nav1.5), pH 7.4, 0.5 mM, read-out: HEK Nay 1.5% inh. @ 0.5 mM): 30% | inhibition at 10 min, 1.5 mM ([3]; human, hNav1.5-HEK293 cells (HEK-293 cells expressing human Nav1.5), pH 7.4, 1.5 mM, read-out: HEK Nav 1.5% inh. @ 1.5 mM): 68% | IC50 ([3]; read-out: HEK Nav 1.5 IC50 (μM) (AVG)): 684 µM

CC(C[N+](C)(C)C1CCCCC1)OC(=O)c1ccc(C(C)(C)C)cc1.[I-] (stereo not shown) [Example 12, N-[2-((4-(tert-Butyl)benzoyl)oxy)propyl]-N,N-dimethyl-cyclohexanaminium iodide]
hTRPV1-N1E Nav 0.1 mM (% inhibition) 25° C. [1, 5]: 25 (N = 4) % | hTRPV1-N1E Nav 0.1 mM (% inhibition) 47° C. ([1]; 0.1 mM, 47° C. (heat activated)): 84 (N = 4) % | hTRPV1-N1E Nav 1 mM (% inhibition) 25° C. ([1]; 1 mM, 25° C. (no heat activation)): 17 (N = 4) % | hTRPV1-N1E Nav 1 mM (% inhibition) 47° C. ([1]; 1 mM, 47° C. (heat activated)): 88 (N = 4) % | IC50 ([1]; 47° C.): 10 to 100 µM | Average Time of Analgesia ([2]; lidocaine 2%, injection 200 μL): 0.5 h | IC50 ([3]; HEK Nav 1.5 IC50 (μM) (AVG)): 134 µM

C[C@@H](C[N+](C)(C)C1CCCCC1)OC(=O)c1ccc(C(C)(C)C)cc1.[I-] [Example 46, (S)-N-[2-((4-(tert-butyl)benzoyl)oxy)propyl]-N,N-dimethylcyclo-hexanaminium iodide]
hTRPV1-N1E Nav 0.1 mM (% inhibition) 25° C. [1, 5]: 40 (N = 4) % | Average Time of Analgesia ([2]; lidocaine 2%, injection 200 μL): 24 h | IC50 ([3]; HEK Nav 1.5 IC50 (μM) (AVG)): 232 µM

C[C@H](C[N+](C)(C)C1CCCCC1)OC(=O)c1ccc(C(C)(C)C)cc1.[I-] [Example 47, (R)-N-[2-((4-(tert-butyl)benzoyl)oxy)propyl]-N,N-dimethylcyclo-hexanaminium iodide]
hTRPV1-N1E Nav 0.1 mM (% inhibition) 25° C. [1, 5]: 54 (N = 4) % | IC50 ([1]; 47° C.): 10 to 100 µM | Average Time of Analgesia ([2]; lidocaine 2%, injection 200 μL): 24 h | IC50 ([3]; HEK Nav 1.5 IC50 (μM) (AVG)): 255 µM

CC[N+](CC)(CC)CC(=O)Nc1c(C)cccc1C [QX-314]
IC50 [4]: 30 µM

CCN(CC)CC(=O)Nc1c(C)cccc1C [lidocaine]
EFS-induced detrusor contractions (isolated detrusor muscle): concentration-dependent inhibitions of EFS-induced detrusor contractions
